Assay results as given in ChEMBL document CHEMBL2034919 (Eur J Med Chem, 2012).

Columns and labels:
[1] = target: 5-hydroxytryptamine receptor 7 (Homo sapiens, UniProt P34969)
[2] = target: Sodium-dependent serotonin transporter (Homo sapiens, UniProt P31645)
[3] = target: T1, 5-hydroxytryptamine receptor 2C (Homo sapiens, UniProt P28335)
T1 sequence (P28335 whole entry): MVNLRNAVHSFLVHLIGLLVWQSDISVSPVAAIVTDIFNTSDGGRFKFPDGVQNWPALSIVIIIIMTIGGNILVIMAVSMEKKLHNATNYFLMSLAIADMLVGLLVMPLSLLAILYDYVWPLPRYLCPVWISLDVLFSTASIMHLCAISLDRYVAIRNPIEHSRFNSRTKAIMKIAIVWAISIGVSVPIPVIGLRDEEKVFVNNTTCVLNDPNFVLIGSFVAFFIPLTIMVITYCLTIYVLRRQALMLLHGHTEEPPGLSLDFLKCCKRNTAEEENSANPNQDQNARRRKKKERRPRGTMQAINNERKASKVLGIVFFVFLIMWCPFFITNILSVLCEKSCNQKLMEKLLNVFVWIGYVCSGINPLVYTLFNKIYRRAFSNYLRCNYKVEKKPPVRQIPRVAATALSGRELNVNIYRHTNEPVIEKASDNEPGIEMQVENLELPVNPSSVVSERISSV

[4] = target: T2, 5-hydroxytryptamine receptor 1A (Homo sapiens, UniProt P08908)
T2 sequence (P08908 whole entry): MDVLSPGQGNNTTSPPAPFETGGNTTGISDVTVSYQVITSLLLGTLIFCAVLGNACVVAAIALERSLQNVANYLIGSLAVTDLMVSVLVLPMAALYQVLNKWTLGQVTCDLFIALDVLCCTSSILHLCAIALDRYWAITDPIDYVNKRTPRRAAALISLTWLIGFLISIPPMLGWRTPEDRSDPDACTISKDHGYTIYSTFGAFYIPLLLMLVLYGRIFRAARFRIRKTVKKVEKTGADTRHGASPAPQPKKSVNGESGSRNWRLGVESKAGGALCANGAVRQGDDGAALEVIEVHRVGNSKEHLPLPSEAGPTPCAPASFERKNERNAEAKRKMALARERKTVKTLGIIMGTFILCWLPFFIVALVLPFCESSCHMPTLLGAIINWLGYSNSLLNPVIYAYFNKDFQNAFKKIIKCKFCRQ

[5] = target: T1, 5-hydroxytryptamine receptor 2C; remark: listed apart in the source
D(4) dopamine receptor = target: T3, D(4) dopamine receptor (Rattus norvegicus, UniProt P30729)
T3 sequence (P30729 whole entry): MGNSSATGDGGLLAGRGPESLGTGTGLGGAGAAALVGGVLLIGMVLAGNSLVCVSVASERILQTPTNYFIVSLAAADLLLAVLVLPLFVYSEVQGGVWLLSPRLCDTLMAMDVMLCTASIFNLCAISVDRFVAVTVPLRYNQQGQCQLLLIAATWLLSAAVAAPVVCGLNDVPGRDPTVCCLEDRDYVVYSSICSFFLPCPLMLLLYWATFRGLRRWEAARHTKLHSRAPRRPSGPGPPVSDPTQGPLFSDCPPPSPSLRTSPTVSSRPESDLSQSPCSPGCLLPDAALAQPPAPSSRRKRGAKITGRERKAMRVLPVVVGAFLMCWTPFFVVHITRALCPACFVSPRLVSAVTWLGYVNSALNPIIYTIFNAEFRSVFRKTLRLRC

[6] = target: 5-hydroxytryptamine receptor 2A (Homo sapiens, UniProt P28223)
D(2) dopamine receptor = D(2) dopamine receptor (Homo sapiens, UniProt P14416)
[7] = target: Sodium-dependent noradrenaline transporter (Homo sapiens, UniProt P23975)
[8] = target: Sodium-dependent dopamine transporter (Homo sapiens, UniProt Q01959)
Histamine H1 receptor = Histamine H1 receptor (Homo sapiens, UniProt P35367)
Chain of Histamine H1 receptor (P35367 whole entry): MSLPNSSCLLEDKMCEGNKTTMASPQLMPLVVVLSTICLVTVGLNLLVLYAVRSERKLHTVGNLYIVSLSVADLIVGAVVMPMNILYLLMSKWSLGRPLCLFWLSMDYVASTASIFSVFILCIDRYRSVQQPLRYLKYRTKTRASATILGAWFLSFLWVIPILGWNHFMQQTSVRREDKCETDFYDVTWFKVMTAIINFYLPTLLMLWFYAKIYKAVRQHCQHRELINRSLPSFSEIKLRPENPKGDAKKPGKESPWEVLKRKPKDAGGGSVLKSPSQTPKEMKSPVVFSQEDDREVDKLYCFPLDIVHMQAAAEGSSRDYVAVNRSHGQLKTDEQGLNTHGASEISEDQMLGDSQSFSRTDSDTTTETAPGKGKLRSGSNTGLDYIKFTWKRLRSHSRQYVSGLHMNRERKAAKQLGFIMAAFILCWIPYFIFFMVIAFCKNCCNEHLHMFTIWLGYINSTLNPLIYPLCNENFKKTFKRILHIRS

Chain of 5-hydroxytryptamine receptor 2A (P28223 whole entry): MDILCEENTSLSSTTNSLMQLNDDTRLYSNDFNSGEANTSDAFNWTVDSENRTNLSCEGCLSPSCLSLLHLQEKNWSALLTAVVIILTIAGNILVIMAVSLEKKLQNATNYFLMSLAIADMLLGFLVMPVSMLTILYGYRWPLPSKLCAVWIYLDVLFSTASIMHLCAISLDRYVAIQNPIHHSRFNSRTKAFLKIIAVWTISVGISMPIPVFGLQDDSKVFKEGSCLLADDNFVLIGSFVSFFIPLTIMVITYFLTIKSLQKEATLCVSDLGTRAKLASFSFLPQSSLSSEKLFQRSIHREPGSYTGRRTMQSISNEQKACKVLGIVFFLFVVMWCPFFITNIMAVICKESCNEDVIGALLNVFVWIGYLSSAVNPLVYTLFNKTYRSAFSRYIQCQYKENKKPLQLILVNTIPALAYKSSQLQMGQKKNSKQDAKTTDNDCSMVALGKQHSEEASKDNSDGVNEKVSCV
Chain of D(2) dopamine receptor (P14416 whole entry): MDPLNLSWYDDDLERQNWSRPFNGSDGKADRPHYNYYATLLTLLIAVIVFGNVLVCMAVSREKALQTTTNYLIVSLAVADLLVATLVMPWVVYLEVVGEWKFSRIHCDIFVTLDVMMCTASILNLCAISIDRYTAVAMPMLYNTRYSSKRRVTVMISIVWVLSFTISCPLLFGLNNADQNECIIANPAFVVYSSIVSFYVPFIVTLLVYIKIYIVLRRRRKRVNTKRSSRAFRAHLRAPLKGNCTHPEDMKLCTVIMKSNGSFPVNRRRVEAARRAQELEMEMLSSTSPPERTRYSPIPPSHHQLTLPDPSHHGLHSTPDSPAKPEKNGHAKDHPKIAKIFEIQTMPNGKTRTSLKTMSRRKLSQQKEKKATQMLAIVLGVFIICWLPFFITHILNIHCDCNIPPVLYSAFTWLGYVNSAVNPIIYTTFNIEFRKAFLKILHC
Chain of 5-hydroxytryptamine receptor 7 (P34969 whole entry): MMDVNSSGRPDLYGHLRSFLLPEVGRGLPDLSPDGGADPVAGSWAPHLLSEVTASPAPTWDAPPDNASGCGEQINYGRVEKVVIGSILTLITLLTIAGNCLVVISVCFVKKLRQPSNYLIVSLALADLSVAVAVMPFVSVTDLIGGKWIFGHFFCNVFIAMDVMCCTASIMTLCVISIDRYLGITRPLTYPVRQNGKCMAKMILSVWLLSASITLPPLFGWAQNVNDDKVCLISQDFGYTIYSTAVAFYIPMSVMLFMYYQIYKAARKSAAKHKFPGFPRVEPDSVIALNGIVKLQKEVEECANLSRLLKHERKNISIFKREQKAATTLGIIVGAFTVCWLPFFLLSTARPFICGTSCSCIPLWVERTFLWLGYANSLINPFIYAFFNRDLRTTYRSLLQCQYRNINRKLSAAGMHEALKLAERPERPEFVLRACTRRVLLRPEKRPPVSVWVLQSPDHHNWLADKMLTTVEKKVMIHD
Chain of Sodium-dependent serotonin transporter (P31645 whole entry): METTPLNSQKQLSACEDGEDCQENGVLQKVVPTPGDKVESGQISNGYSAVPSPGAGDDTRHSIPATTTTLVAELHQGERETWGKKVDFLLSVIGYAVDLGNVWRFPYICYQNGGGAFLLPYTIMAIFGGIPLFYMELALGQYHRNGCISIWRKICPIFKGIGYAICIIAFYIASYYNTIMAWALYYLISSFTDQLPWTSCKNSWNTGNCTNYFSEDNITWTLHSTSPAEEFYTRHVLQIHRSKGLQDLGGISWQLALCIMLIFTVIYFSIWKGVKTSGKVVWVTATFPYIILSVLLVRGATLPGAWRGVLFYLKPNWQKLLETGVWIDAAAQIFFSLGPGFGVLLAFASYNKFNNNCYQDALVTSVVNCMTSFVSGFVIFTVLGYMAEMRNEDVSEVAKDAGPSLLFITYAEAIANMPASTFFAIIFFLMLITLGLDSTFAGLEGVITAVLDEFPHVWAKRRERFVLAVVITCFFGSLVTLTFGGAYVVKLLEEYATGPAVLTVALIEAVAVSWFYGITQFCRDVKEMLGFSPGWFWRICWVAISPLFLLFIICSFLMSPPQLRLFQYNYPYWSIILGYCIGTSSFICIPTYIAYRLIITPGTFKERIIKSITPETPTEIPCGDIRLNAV
Chain of Sodium-dependent noradrenaline transporter (P23975 whole entry): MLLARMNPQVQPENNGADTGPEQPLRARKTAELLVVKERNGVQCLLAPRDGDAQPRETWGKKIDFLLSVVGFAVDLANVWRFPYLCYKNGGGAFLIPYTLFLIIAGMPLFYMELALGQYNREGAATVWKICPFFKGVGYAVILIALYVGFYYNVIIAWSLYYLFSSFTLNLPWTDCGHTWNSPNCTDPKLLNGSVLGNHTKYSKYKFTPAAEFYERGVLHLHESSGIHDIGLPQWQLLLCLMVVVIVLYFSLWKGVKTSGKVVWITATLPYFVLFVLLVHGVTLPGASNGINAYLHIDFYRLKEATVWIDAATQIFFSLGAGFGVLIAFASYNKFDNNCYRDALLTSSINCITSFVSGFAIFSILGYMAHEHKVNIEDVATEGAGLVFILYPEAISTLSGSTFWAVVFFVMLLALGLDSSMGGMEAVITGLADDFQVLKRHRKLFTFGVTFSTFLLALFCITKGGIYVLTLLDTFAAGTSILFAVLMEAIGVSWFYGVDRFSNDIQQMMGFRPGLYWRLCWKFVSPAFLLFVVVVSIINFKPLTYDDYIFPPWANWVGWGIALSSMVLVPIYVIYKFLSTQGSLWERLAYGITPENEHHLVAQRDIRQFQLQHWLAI
Chain of Sodium-dependent dopamine transporter (Q01959 whole entry): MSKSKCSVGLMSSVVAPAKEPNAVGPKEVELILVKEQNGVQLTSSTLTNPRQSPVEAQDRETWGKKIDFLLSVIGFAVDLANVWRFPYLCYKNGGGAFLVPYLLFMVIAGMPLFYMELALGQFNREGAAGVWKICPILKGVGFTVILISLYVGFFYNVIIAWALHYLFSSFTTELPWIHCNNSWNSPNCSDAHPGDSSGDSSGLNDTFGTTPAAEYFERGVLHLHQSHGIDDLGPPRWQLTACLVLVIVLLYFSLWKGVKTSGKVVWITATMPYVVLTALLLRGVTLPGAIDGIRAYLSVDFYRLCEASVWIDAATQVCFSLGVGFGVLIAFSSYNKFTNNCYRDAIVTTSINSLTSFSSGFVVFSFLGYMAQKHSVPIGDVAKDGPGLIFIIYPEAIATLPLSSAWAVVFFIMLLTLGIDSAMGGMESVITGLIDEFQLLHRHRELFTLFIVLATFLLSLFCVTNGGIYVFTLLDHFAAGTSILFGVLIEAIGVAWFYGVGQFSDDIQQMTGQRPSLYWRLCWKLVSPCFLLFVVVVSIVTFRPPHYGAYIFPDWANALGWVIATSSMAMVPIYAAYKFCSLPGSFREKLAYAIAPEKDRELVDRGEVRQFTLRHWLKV

Row | Ki [5] | Ki (D(4) dopamine receptor) | Structure (SMILES) | Ki ([1]; read-out: Ki) | Ki ([2]; read-out: Ki) | Ki [3] | Ki [4] | Ki (D(4) dopamine receptor; read-out: Ki) | Ki [6] | Ki (D(2) dopamine receptor) | Ki [2] | Ki [1] | Ki [7] | Ki [8] | Ki (Histamine H1 receptor)
1 |  |  | Clc1ccc(N2CCCN(CCCCc3nc4ccccc4s3)CC2)cc1 | 413 nM | 65 nM |  |  |  |  |  |  |  |  |  | 
2 |  |  | Clc1ccc(N2CCCN(CCCc3nc4ccccc4s3)CC2)cc1 | 2060 nM | 34 nM | Not Active |  |  |  |  |  |  |  |  | 
3 |  |  | O=C(CCCCN1CCCN(c2ccc(Cl)cc2)CC1)c1nc2ccccc2s1 | 2810 nM | 65 nM |  |  |  |  |  |  |  |  |  | 
4 |  |  | O=C(CCCN1CCCN(c2ccc(Cl)cc2)CC1)c1nc2ccccc2s1 | 356 nM | 5.3 nM |  |  |  |  |  |  |  |  |  | 
5 | 4.65 µM |  | Clc1ccc(N2CCN(CCCc3nc4ccccc4s3)CC2)cc1 | 790 nM | 1180 nM |  | 312 nM | 31 nM | 36 nM | 2320 nM |  |  |  |  | 
6 | 6.21 µM |  | Clc1ccc(N2CCN(CCCCc3nc4ccccc4s3)CC2)cc1 | 329 nM | 166 nM |  | 90.5 nM | 4 nM | 132 nM | 219 nM |  |  |  |  | 
7 |  |  | OC1(c2ccc(Cl)cc2)CCN(CCCCc2nc3ccccc3s2)CC1 | 983 nM | 922 nM | Not Active | 771 nM | 140 nM | 4260 nM | 201 nM |  |  |  |  | 
8 |  |  | O=C(CCCN1CCC(c2ccccc2)CC1)c1nc2ccccc2s1 |  |  | Not Active | 85 nM | 44.4 nM |  | 530 nM |  |  |  |  | 
9 |  |  | O=C(CCCN1CCN(c2ncccn2)CC1)c1nc2ccccc2s1 |  |  | Not Active | 63 nM | 51.5 nM |  |  | Not Active |  |  |  | 
10 |  |  | O=C(CCCCN1CCC(n2c(=O)[nH]c3cc(Cl)ccc32)CC1)c1nc2ccccc2s1 |  | 565 nM | Not Active | 252 nM | 1710 nM | 1560 nM | 217 nM |  |  |  |  | 
11 |  |  | c1ccc2c(c1)CN(CCCCc1nc3ccccc3s1)C2 | 211 nM | 186 nM | Not Active | 111 nM | 141 nM | > 10000 nM | 990 nM |  |  |  |  | 
12 |  |  | O=C(CCCN1CCN(c2ccc(Cl)cc2)CC1)c1nc2ccccc2s1 |  | 491 nM | Not Active | > 10000 nM | 342 nM | 2000 nM | 8360 nM |  | Not Active |  |  | 
13 |  | Not Active | O=C(CCCN1CCN(c2ccccc2)CC1)c1nc2ccccc2s1 |  | > 10000 nM | Not Active | 350 nM |  | > 10000 nM | > 10000 nM |  | Not Active |  |  | 
14 |  |  | O=C(CCCCN1CCC2(CC1)C(=O)NCN2c1ccccc1)c1nc2ccccc2s1 | 518 nM | 284 nM | Not Active | 103 nM | 162 nM | 3720 nM |  |  |  |  |  | 
15 |  |  | O=C(CCCCN1Cc2ccccc2C1)c1nc2ccccc2s1 |  |  | Not Active |  | 512 nM | > 10000 nM |  |  |  |  |  | 
16 |  |  | O=C(CCCCN1CCN(c2ccc(Cl)cc2)CC1)c1nc2ccccc2s1 | 2920 nM | 81 nM | Not Active | 28.3 nM | 100 nM | 523 nM | 4790 nM |  |  | > 10000 nM | 4.74 µM | 46 nM
17 |  |  | O=C(CCCCN1CCN(c2ncccn2)CC1)c1nc2ccccc2s1 |  |  | Not Active | 3.6 nM |  |  |  | Not Active |  |  |  | 
18 |  |  | O=C(CCCCN1CCN(c2ccccc2)CC1)c1nc2ccccc2s1 |  |  |  | 3.6 nM | 105 nM |  |  |  |  |  |  | 
19 | 3.74 µM |  | O=C(CCCCN1CCC(c2ccccc2)CC1)c1nc2ccccc2s1 | 107 nM | 64 nM |  | 7.3 nM | 180 nM | 3.4 nM | 642 nM |  |  | 49 nM |  | 52 nM
20 |  |  | N#Cc1ccc2[nH]cc(CCCCN3CCN(c4ccc5oc(C(N)=O)cc5c4)CC3)c2c1 [VILAZODONE] |  |  |  |  |  |  | 666 nM |  |  |  |  | 

Row | Structure (SMILES) | Ki [5] | Ki (D(4) dopamine receptor) | Ki ([1]; read-out: Ki) | Ki ([2]; read-out: Ki) | Ki [3] | Ki [4] | Ki (D(4) dopamine receptor; read-out: Ki) | Ki [6] | Ki (D(2) dopamine receptor) | Ki [2] | Ki [1] | Ki [7] | Ki [8] | Ki (Histamine H1 receptor)
21 | c1cnc(N2CCN(CCCCc3nc4ccccc4s3)CC2)nc1 | > 10 µM |  | 229 nM |  |  |  | 0.8 nM | 224 nM |  | Not Active |  |  |  | 
22 | c1ccc2c(c1)CCN(CCCCc1nc3ccccc3s1)C2 | 6.27 µM |  | 35.6 nM | 1320 nM |  | 5.1 nM | 65.5 nM | 3810 nM | 30.8 nM |  |  |  |  | 
